The values below are quoted from earlier work in patent US20230111756A1, “STABLE FORMULATIONS OF PLANTS EXTRACTS AND METHODS OF MAKING THE SAME” (Nulixir Inc., priority 2021, published 2023).

What is called log P is the decadic logarithm of the partition coefficient of the neutral form, usually between octanol and water.

For the series the following is noted: reference solvents n-octanol and water; categorization at pH=7 unless stated otherwise.

For the compound `COc1cc2c(c(OC)c1OC)-c1c(cc3c(c1OC)OCO3)CC(C)C(C)C2` (single isomer, unassigned; (-)) [(−)-schisandrin B], the lipophilicity (log P) is given as about 4.

Take `COc1cc(/C=C/c2ccccc2)oc(=O)c1` [5,6-dehydrokawain]: the “log P” value is on record as about 2.9.

For the compound `COC1=CC(=O)OC(/C=C/c2ccc(OC)cc2)C1` (stereo not shown) [5,6-dihydroyangonin], the “log P” value is on record as about 2.5.

Take `CC1=C(CO)C(=O)O[C@@H]([C@@H](C)[C@H]2CC[C@H]3[C@@H]4C[C@H](Cl)[C@]5(O)[C@@H](O)C=CC(=O)[C@]5(C)[C@H]4CC[C@]23C)C1` [6a-chloro-5b-hydroxywithaferin A]: the “log P” value is on record as about 3.2.

Take `COC1=CC(=O)O[C@@H](CCc2ccc3c(c2)OCO3)C1` [7,8-dihydromethysticin]: the “log P” value is on record as about 2.2.

For `COc1ccc(CCc2cc(OC)cc(=O)o2)cc1` [7,8-dihydroyangonin], the “log P” value was about 2.9.

For the compound `COc1cc(/C=C\c2ccc(OC)c(O)c2)oc(=O)c1` [11-hydroxyyangonin], the “log P” value is on record as about 2.2.

Consider `COc1cc2c(c(OC)c1OC)-c1c(cc(OC)c(OC)c1OC)C[C@](C)(O)[C@@H](C)C2` [(+)-schisandrin], for which the “log P” value is about 5.

On to `COc1cc2c(c(OC)c1OC)-c1c(cc(OC)c(OC)c1OC)C[C@H](C)[C@H](C)C2` [(−)-schisandrin A], for which the “log P” value is about 3.6.

Consider `COc1c2c(cc3c1-c1c(cc4c(c1OC)OCO4)C[C@H](C)[C@H](C)C3)OCO2` [(−)-schisandrin C], for which the “log P” value is about 3.5.

For the compound `COc1ccc([C@@]23CCC(=O)C[C@@H]2N(C)CC3)cc1OC` [mesembrine], the “log P” value is reported as 1.5.

As for `COc1nc2c(c(=O)n1C)n(C)c(=O)n2C` [methylliberine], the “log P” value is about −0.083.

With `CC(=O)OC1C=CC(=O)N(C(=O)CCc2ccccc2)C1` (stereo not shown) [pipermethystine], the “log P” value was about 1.8.

For the compound `COc1cc([C@H]2Oc3cc(O)c4c(=O)c(O)c(-c5ccc(O)cc5)oc4c3O[C@@H]2CO)ccc1O` [rhodiolin], the “log P” value was about 2.

For the compound `COc1cc2c(c(OC)c1OC)-c1c(cc(OC)c(OC)c1OC)C[C@](C)(O)[C@@H](C)C2` [schisandrol A], the “log P” value was about 3.4.

For the compound `N#C[C@@]1(O[C@@H]2O[C@H](CO)[C@@H](O)[C@H](O)[C@H]2O)C=C[C@@H](O)C1` [tetraphyllin B], the “log P” value is recorded as about −2.5.

For the compound (R)-kawain, the “log P” value is given as about 2.7.

On to bacopaside B, for which the “log P” value is reported as about 2.8.

For hericerin, the “log P” value was about 6.4.

On to herinacine A, for which the “log P” value is reported as about 2.5.

On to schisandroside C, for which the “log P” value is recorded as about 1.6.

As to tortuosomine, the “log P” value was 3.
